Entries after “also recorded” stand apart in the source; their conditions may differ.
Tests used:
[1] = system: FVB/N mice; assay: Predator (cat) odor stress paradigm, elevated plus maze (EPM) and acoustic startle response (ASR) one week post-exposure; type: in vivo, mouse
Experimental: Animals: FVB/N or adult TLR9 −/− mice and strain-matched wild type C57/B6J mice were housed four per cage, with constant temperature (21±1° C.), a 12 hour light/dark cycle, free access to food and water and habituation to the housing conditions by daily handling. Experiments were performed 1 week after arrival in the animal facility.
Behavioral paradigms: Mice were placed for 10 minutes on well-soiled cat litter (in use by the cat for 2 days, sifted for stools). One week after exposure, animals were tested according to Cohen et al. (2005) Biol Psychiatry 58, 640 in the elevated plus maze (EPM) and the acoustic startle response (ASR) paradigms. The EPM is a plus-shaped platform with two opposing open arms and two opposing closed arms (surrounded by 14-cm high opaque walls on three sides). Mice were placed on the central platform and were allowed to explore the maze for 5 min. […]
Startle response was measured using two ventilated startle chambers (SR-LAB System, San Diego Instruments, San Diego, Calif.). Each Plexiglas cylinder rests on a platform inside a sound-attenuated, ventilated chamber. Startle sessions started with a 5-minute acclimatization period to a background of 68 dB white noise, followed by 30 acoustic startle stimuli (110 dB white noise of 40 ms duration with 30 s or 45 s inter-trial interval). Startle amplitude was averaged over all 30 trials, and percent habituation was calculated as the percent difference between the response to the first block of stimuli and to the last one.
Animals were randomly divided into 5 groups. The following daily treatments initiated immediately before stressor exposure and for a total of four consecutive days: saline, 50 μg/kg ODN1826, 50 μg/kg mEN101, 50 μg/kg μg mEN101 and 500 μg/kg μg ODN2088. Oligonucleotides were delivered in 300 μl 0.9% NaCl solution (Teva, Israel). A control group was exposed to fresh, unused litter. Animals were sacrificed and brains dissected on day 1 2 h after the stressor, on day 4 2 h after the last injection, or on day 7 2 h after the behavioral tests, as noted.
To challenge the hypothesis that TLR9 activation modulates psychological stress reactions, mice were exposed to the predator odor stress paradigm (Cohen, H., Zohar, J., Matar, M. A., Kaplan, Z. & Geva, A. B. (2005) Biol Psychiatry 58, 640-50) and treated them with TLR9 activating or blocking oligonucleotides and with a known stress-suppressing oligonucleotide, mEN101. One week post-exposure, treated mice were tested for avoidance behavior and hyper-arousal in the elevated plus maze (EPM) and acoustic startle response (ASR) tests, respectively (FIG. 1B). […] They also presented greater startle amplitude (F5,103=10.75, p<0.0001; p<0.0001) and decreased startle habituation ([…]; p<0.0001) than control mice (FIG. 1C). The traumatic experience conferred varied impacts in the exposed mice, ranging from drastically maladaptive behavior to generally unmodified response patterns.

[2] = system: RAW264.7 cells; assay: HSP90β mRNA RT-PCR in RAW264.7 cells; type: cell-based, mouse; settings: 24 hour incubation
Experimental: Cell cultures: The mouse macrophage cell line RAW 264.7 (ATCC, MD) was cultured in Dulbecco's modified Eagle's medium (DMEM) (Biological Industries, Israel) supplemented with 10% heat-inactivated fetal bovine serum (Biological Industries, Israel), 100 μg/ml streptomycin (Sigma), 100 U/ml penicillin (Sigma) and 2 mM 1-glutamine (Biological Industries, Israel) at 37° C. in a humidified atmosphere with 5% CO2.
Real-time PCR (RT-PCR): RAW264.7 cells and spleen were used for RT-PCR. 1×10^6 RAW264.7 cells were grown in 2 ml medium in 6 wells plates until 80% confluence was obtained. Total RNA was extracted using the RNeasy kit (Qiagen, CA, USA). Spleen and brain tissues' RNA was extracted using the RNeasy Tissue Mini Kit (Qiagen, Germany). In all cases, total RNA was reverse-transcribed (200 ng) using Impromp-II reverse transcriptase (Promega, WI, USA) according to manufacturer's instructions. RT-PCR was performed using Power SYBR®Green PCR Master Mix (Applied Biosystems, UK) in a 7900 HT Sequence Detection System (Applied Biosystems, CA). Quantification was assessed at the logarithmic phase of the PCR reaction. The PCR annealing temperature was 60° C. for all primer pairs.

[3] = system: RAW264.7 cells; assay: LPS-induced NO production with or without corticosterone after ODN1826 pre-incubation; type: cell-based, mouse; settings: 24 hours before LPS 1 μg/ml with corticosterone
Experimental: Determination of nitric oxygen (NO) production: The nitrite concentration in the medium was measured as an indicator of NO production according to the Griess reaction. 1×10^5 RAW264.7 cells were grown in 0.5 ml medium in 48-wells plate until 80% confluence was obtained. […] (1% sulfanilamide, 0.1% naphthylethylenediamine dihydrochloride, 5% H3PO4). Absorbance was read at 540 nm after 10 minutes using SPECTRAFluor Plus spectrophotometer (TECAN, UK).
In order to study the functional effects of TLR9 activation on GR signaling, RAW264.7 cells were incubated with varying concentrations of ODN1826 (SEQ ID NO: 2) for 24 hours and the medium was replaced with one containing LPS (1 μg/ml) with or without […] corticosterone (CORT) for an additional 24 hours. As expected, CORT blocked lipopolysaccharide (LPS)-induced NO production.

[4] = system: FVB/N mice; assay: Predator (cat) odor stress paradigm, elevated plus maze (EPM) and acoustic startle response (ASR) one week post-exposure; type: in vivo, mouse; remark: listed apart in the source

Substance: 5′-TCCATGACGTTCCTGACGTT-3′ [ODN1826, reference compound]
- anxiety index (AI) ([1]; 50 μg/kg (high dose for ODN1826), compared to saline injected stressed mice): significantly increased AI
- stress-induced anxiety scores (EPM score, startle response, habituation to startle) ([1]; 50 μg/kg i.p. daily for 4 consecutive days, tested day 7, compared to saline-treated stressed mice): increased stress-induced anxiety scores; also recorded: slightly anxiogenic behavior
- HSP90β mRNA levels [2]: significantly increased HSP90β mRNA levels
- effect on LPS-induced NO production / cell activation ([3]; higher doses (10-100 nM)): increased cell activation
- effect on CORT inhibition of LPS-induced NO production ([3]; low doses (0.01-1 nM)): potentiated CORT anti-inflammatory effect
- stress-induced anxiety scores (EPM score, startle response, habituation to startle) ([4]; 0.5 μg/kg i.p. daily for 4 days, tested day 7, compared to stressed mice): diminished stress-induced anxiety scores; also recorded: lower EPM scores
- anxiety index (AI) ([4]; low dose (0.5 μg/kg), compared to saline injected stressed mice): decreased it

Reference: patent publication US20110136897A1, “TOLL-LIKE RECEPTOR 9 AGONISTS FOR THE TREATMENT OF ANXIETY-RELATED DISORDERS AND INFLAMMATORY DISORDERS” (YISSUM RESEARCH DEVELOPMENT COMPANY OF THE HEBREW …, priority 2008, published 2011)
